From ChEMBL document CHEMBL2321784, “Discovery of 5-benzyl-3-phenyl-4,5-dihydroisoxazoles and 5-benzyl-3-phenyl-1,4,2-dioxazoles as potent firefly luciferase inhibitors” (J Med Chem, 2013)
The source made the active and inactive calls. No cut-off for these calls is given here.

Tests used:
[1] = target: Luciferin 4-monooxygenase (Photinus pyralis) (UniProt P08659); experiment: Noncompetitive inhibition of recombinant firefly luciferase using luciferin as substrate at 1 to 100 nM after 30 min by Michaelis-Menten plot analysis
Chain of Luciferin 4-monooxygenase (Photinus pyralis) (P08659 whole entry): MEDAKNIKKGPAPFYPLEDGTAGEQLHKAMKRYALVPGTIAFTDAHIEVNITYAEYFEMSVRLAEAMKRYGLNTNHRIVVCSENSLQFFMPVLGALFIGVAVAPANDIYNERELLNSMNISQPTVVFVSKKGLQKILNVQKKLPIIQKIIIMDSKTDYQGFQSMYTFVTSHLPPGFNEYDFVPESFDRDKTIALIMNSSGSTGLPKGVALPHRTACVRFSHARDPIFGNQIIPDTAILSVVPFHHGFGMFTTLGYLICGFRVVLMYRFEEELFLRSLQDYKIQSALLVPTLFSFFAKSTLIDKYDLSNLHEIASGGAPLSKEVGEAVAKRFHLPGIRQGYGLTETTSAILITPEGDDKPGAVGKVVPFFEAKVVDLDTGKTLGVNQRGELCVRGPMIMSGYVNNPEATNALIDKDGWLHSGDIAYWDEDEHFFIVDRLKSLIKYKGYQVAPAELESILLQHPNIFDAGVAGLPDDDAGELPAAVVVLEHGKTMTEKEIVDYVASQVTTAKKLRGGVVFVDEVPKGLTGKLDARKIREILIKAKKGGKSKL

[2] = target: Luciferin 4-monooxygenase (Photinus pyralis) (UniProt P08659); experiment: Inhibition of recombinant firefly luciferase activity expressed in U87 cells at 10 uM after 48 hrs; assay type: cell-based; conditions: U-87MG ATCC
[3] = Cytotoxicity against human U87 cells assessed as cell viability at 10 uM after 6 hrs by propidium iodide staining-based fluorescence assay; conditions: u-87mg atcc
[4] = target: Luciferin 4-monooxygenase (Photinus pyralis) (UniProt P08659); experiment: Noncompetitive inhibition of recombinant firefly luciferase using ATP as substrate at 1 to 100 nM after 30 mins by Michaelis-Menten plot analysis
[5] = target: Luciferin 4-monooxygenase (Photinus pyralis) (UniProt P08659); experiment: Reversible inhibition of recombinant firefly luciferase incubated for 30 mins measured post compound wash-out by luminescence assay
[6] = target: Luciferin 4-monooxygenase (Photinus pyralis) (UniProt P08659); experiment: Inhibition of recombinant firefly luciferase at 10 uM after 20 mins by luminescence assay
[7] = target: Luciferin 4-monooxygenase (Photinus pyralis) (UniProt P08659); experiment: Inhibition of recombinant firefly luciferase at 1 nM after 20 mins by luminescence assay
[8] = target: T1, Coelenterazine h 2-monooxygenase (Renilla reniformis) (UniProt P27652); experiment: Inhibition of sea pansy luciferase after 20 mins by luminescence assay
T1 sequence (whole entry): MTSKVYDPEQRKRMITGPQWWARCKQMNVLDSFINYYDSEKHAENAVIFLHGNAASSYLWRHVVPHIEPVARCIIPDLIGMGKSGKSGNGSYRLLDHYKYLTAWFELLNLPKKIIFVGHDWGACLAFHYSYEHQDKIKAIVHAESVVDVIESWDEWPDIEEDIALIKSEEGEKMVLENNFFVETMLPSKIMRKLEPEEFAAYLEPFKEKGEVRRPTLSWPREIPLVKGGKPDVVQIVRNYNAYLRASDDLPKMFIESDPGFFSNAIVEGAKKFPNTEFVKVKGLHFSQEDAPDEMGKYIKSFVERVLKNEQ

[9] = target: Luciferin 4-monooxygenase (Photinus pyralis, UniProt P08659); experiment: Inhibition of recombinant firefly luciferase after 20 mins by luminescence assay
Chain of Luciferin 4-monooxygenase (P08659 whole entry): as the sequence (P08659 whole entry) above

[10] = target: Luciferin 4-monooxygenase (Photinus pyralis) (UniProt P08659); experiment: Inhibition of recombinant firefly luciferase activity expressed in U87 cells at 10 uM after 2 mins; assay type: cell-based; conditions: U-87MG ATCC

**Q.** Which inhibition [1] does the source give for `Clc1ccc(C2=NO[C@H](Cc3ccccc3)C2)cc1` here?
**A.** The inhibition was “Active”.

**Q.** And the inhibition [2]?
**A.** Its inhibition is “Active”.

**Q.** What about the Activity [3] of the same compound?
**A.** Its Activity is “Non-toxic”.

**Q.** And the inhibition [4]?
**A.** Its inhibition is “Active”.

**Q.** What about the inhibition [5] of the same compound?
**A.** The inhibition was “Active”.

**Q.** What about the inhibition [6] of the same compound?
**A.** The inhibition was 99.8%.

**Q.** What about the inhibition [7] of the same compound?
**A.** Its inhibition is 72.8%.

**Q.** What about the inhibition [8] of the same compound?
**A.** Its inhibition is “inactive”.

**Q.** What about the IC50 [9] of the same compound?
**A.** The IC50 was 0.257 nM.

**Q.** What about the inhibition [10] of the same compound?
**A.** The inhibition was “Active”.
